Experiment [1] has as its target T1, full length Aurora-A (AA 1-403) (Homo sapiens, UniProt O14965).
T1 construct: full length Aurora-A (AA 1-403)
T1 sequence (O14965 1-403): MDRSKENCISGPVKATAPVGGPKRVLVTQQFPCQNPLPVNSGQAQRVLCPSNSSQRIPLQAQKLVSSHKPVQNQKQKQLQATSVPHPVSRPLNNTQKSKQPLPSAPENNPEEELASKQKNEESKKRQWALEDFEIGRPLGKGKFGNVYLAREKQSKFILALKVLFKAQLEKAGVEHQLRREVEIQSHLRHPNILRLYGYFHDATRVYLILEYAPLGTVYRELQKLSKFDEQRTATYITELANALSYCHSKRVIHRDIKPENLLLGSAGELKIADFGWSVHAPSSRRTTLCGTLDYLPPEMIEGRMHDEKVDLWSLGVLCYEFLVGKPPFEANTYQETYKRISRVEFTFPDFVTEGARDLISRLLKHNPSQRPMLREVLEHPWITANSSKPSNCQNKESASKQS
In words: Aurora-A inhibition assay, standard coupled enzyme system. It counts as biochemical. To be noted: average Ki if more than one value determined. The protocol:
Compounds were screened for their ability to inhibit full length Aurora-A (AA 1-403) activity using a standard coupled enzyme system (Fox et al., Protein Sci. 7, pp. 2249 (1998)). Reactions were carried out in a solution containing 100 mM HEPES (pH 7.5), 10 mM MgCl2, 25 mM NaCl, 300 μM NADH, 1 mM DTT and 3% DMSO. Final substrate concentrations in the assay were 200 μM ATP (Sigma Chemicals, St Louis, Mo.) and 800 μM peptide (LRRASLG, American Peptide, Sunnyvale, Calif.). Reactions were carried out at 30° C. and 35 nM Aurora-A. Final concentrations of the components of the coupled enzyme system were 2.5 mM phosphoenolpyruvate, 200 μM NADH, 60 μg/ml pyruvate kinase and 20 μg/ml lactate dehydrogenase.
An assay stock buffer solution was prepared containing all of the reagents listed above with the exception of ATP and the test compound of interest. The assay stock buffer solution (60 μl) was incubated in a 96 well plate with 2 μl of the test compound of interest at final concentrations spanning 0.002 μM to 30 μM at 30° C. for 10 min. Typically, a 12 point titration was conducted by preparing serial dilutions (from 1 mM compound stocks) with DMSO of the test compounds in daughter plates. The reaction was initiated by the addition of 5 μl of ATP (final concentration 200 μM). Rates of reaction were obtained using a Molecular Devices Spectramax plate reader (Sunnyvale, Calif.) over 10 min at 30° C. The Ki values were determined from the rate data as a function of inhibitor concentration using computerized nonlinear regression (Prism 3.0, Graphpad Software, San Diego, Calif.). Aurora-C activity was screened in a similar manner using Aurora-C protein. Aurora-B activity was screened using a radioactive assay, such as described in Examples 1 and 2, but using Aurora-B protein.

The target of a further experiment is T2, ROCK I (AA 6-553) (Homo sapiens, UniProt Q13464).
T2 construct: ROCK I (AA 6-553)
T2 sequence (Q13464 6-553, species assumed): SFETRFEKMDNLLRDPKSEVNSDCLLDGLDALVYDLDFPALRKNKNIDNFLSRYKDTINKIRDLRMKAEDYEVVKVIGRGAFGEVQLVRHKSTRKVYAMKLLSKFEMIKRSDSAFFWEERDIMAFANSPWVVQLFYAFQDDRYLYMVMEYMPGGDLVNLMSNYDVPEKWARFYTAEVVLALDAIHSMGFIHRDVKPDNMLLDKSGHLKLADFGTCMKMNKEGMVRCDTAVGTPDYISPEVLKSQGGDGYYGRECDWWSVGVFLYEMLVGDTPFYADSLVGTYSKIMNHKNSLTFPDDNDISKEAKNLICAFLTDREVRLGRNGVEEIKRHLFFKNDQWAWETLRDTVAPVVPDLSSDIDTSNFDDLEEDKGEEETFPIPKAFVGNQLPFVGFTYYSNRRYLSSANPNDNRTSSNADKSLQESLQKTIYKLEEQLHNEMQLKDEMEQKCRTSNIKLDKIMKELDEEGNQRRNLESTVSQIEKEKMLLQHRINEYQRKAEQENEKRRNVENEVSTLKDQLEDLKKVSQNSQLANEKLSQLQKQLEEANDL
The experiment can be described thus: ROCK inhibition assay, standard coupled enzyme system ("Enzyme"). It counts as biochemical. Conditions: enzyme-linked assay. The protocol:
Compounds were screened for their ability to inhibit ROCK I (AA 6-553) activity using a standard coupled enzyme system (Fox et al. (1998) Protein Sci. 7, 2249). Reactions were carried out in a solution containing 100 mM HEPES (pH 7.5), 10 mM MgCl2, 25 mM NaCl, 2 mM DTT and 1.5% DMSO. Final substrate concentrations in the assay were 45 μM ATP (Sigma Chemicals, St Louis, Mo.) and 200 μM peptide (American Peptide, Sunnyvale, Calif.). Reactions were carried out at 30° C. and 45 nM ROCK L. Final concentrations of the components of the coupled enzyme system were 2.5 mM phosphoenolpyruvate, 350 μM NADH, 30 μg/ml pyruvate kinase and 10 μg/ml lactate dehydrogenase.

The text below walks through data of US8501446B2 (Vertex Pharmaceuticals Incorporated, priority 2004, dated 2013).

In general, Ki refers to a measure of affinity in units of concentration, obtained from inhibition or displacement. Lower therefore signals a stronger hold on the target.

Bounds are passed on as bounds.

`COCC#Cc1cnc2[nH]cc(-c3ncc(F)c(N[C@@H](C)c4ccc(F)cc4)n3)c2c1` [Compound 384]: the inhibition constant (Ki) is < 0.5 µM in experiment [1] and 0.5 to 5 µM at ROCK I (AA 6-553).
Take `CC(C)(C)OC(=O)N1CCN(c2cccc(-c3c[nH]c4ncc(Cl)cc34)n2)CC1` [Compound 257]: the Ki (in experiment [1]; at ROCK I (AA 6-553)) was 0.5 to 5 µM each time.
Consider `CNS(=O)(=O)c1ccc(-c2cnc3[nH]cc(-c4ccc(C(N)=O)cc4)c3c2)cc1` [Compound 256], for which the Ki (in experiment [1]; at ROCK I (AA 6-553)) was < 0.5 µM each time.
For the compound `Nc1ccc(-c2c[nH]c3ncc(-c4ccccc4)cc23)cc1` [Compound 232], the Ki in experiment [1] is < 0.5 µM; at ROCK I (AA 6-553), 0.5 to 5 µM.
As to `C[C@@H](CC(=O)O)Nc1nc(-c2c[nH]c3ncc(Cl)cc23)ncc1F` [Compound 401], the Ki was < 0.5 µM in experiment [1] and 0.5 to 5 µM at ROCK I (AA 6-553).
`CC(C)CNC(=O)[C@H](C)Nc1nc(-c2c[nH]c3ncc(Cl)cc23)ncc1F` [Compound 364]: the Ki is < 0.5 µM in experiment [1] and 0.5 to 5 µM at ROCK I (AA 6-553).
The matching figures for `CN(C)c1cccc(-c2c[nH]c3ncc(-c4ccccc4)cc23)n1` [Compound 253]: < 0.5 µM and < 0.5 µM.
As for `CS(=O)(=O)c1cccc(-c2c[nH]c3ncc(-c4ccc(F)cc4)cc23)c1` [Compound 221], the Ki (in experiment [1]; at ROCK I (AA 6-553)) was < 0.5 µM each time.
For `CCNC(=O)[C@H](C)Nc1nc(-c2c[nH]c3ncc(Cl)cc23)ncc1F` [Compound 367], the inhibition constant Ki in experiment [1] was < 0.5 µM; on ROCK I (AA 6-553), 0.5 to 5 µM.
The matching figures for `NC(=O)c1ccc(-c2c[nH]c3ncc(-c4ccoc4)cc23)cc1` [Compound 235]: < 0.5 µM and < 0.5 µM.
For `C[C@H](Nc1nc(-c2c[nH]c3ncc([N+](=O)[O-])cc23)ncc1F)c1ccc(F)cc1` [Compound 342], the values for the Ki (in experiment [1]; on ROCK I (AA 6-553)) were < 0.5 µM and 0.5 to 5 µM, respectively.
Take `Clc1ccccc1Nc1cccc(-c2c[nH]c3ncc(-c4ccccc4)cc23)n1` [Compound 266]: the Ki in experiment [1] is < 0.5 µM; on ROCK I (AA 6-553), 0.5 to 5 µM.
For the compound `CN1CCC(CNc2nc(-c3c[nH]c4ncc(Cl)cc34)ncc2F)CC1` [Compound 372], the Ki in experiment [1] is < 0.5 µM; at ROCK I (AA 6-553), 0.5 to 5 µM.
In the case of `CC(Nc1nc(-c2c[nH]c3ncc(Cl)cc23)ncc1F)c1ccc(Cl)cc1` (stereo not drawn) [Compound 311], the values for the Ki (in experiment [1]; at ROCK I (AA 6-553)) were < 0.5 µM and 0.5 to 5 µM, respectively.
Taken in the same sequence, the figures for `Clc1cnc2[nH]cc(-c3cccc(Nc4ccccc4Cl)n3)c2c1` [Compound 263] were < 0.5 µM and 0.5 to 5 µM.
`Clc1cnc2[nH]cc(-c3cccc(N4CCNCC4)n3)c2c1` [Compound 267]: the Ki (in experiment [1]; on ROCK I (AA 6-553)) was < 0.5 µM throughout.
`COc1cccc(-c2cnc3[nH]cc(-c4ccc(C(N)=O)cc4)c3c2)c1` [Compound 239]: the inhibition constant (Ki) (in experiment [1]; at ROCK I (AA 6-553)) was < 0.5 µM in each case.
Take `C[C@H](Nc1nc(-c2c[nH]c3ncc(Br)cc23)ncc1F)c1ccc(F)cc1` [Compound 357]: the results for the Ki (in experiment [1]; on ROCK I (AA 6-553)) were < 0.5 µM and 0.5 to 5 µM, respectively.
Regarding `CNC(=O)C[C@H](C)Nc1nc(-c2c[nH]c3ncc(Cl)cc23)ncc1F` [Compound 402], the Ki (in experiment [1]; at ROCK I (AA 6-553)) was 0.5 to 5 µM throughout.
As to `C[C@H](Nc1nc(-c2c[nH]c3ncc(Cl)cc23)ncc1F)C(=O)NCCS(C)(=O)=O` [Compound 389], the inhibition constant (Ki) in experiment [1] was < 0.5 µM; on ROCK I (AA 6-553) it was 0.5 to 5 µM.
For `O=C(Nc1cccc(-c2c[nH]c3ncc(Cl)cc23)n1)c1ccccn1` [Compound 294], the results for the inhibition constant (Ki) (in experiment [1]; at ROCK I (AA 6-553)) were < 0.5 µM and 0.5 to 5 µM, respectively.
The matching figures for `CN(C)CCCNc1cccc(-c2c[nH]c3ncc(Cl)cc23)n1` [Compound 271]: < 0.5 µM and 0.5 to 5 µM.
For `CNc1cccc(-c2c[nH]c3ncc(-c4ccccc4)cc23)n1` [Compound 278], the Ki (in experiment [1]; on ROCK I (AA 6-553)) was < 0.5 µM each time.
In the case of `COC(=O)c1cc(F)c(-c2c[nH]c3ncc(Cl)cc23)nc1N[C@@H](C)c1ccc(F)cc1` [Compound 398], the Ki in experiment [1] was < 0.5 µM; at ROCK I (AA 6-553) it was 0.5 to 5 µM.
On to `Fc1cnc(-c2c[nH]c3ncc(Cl)cc23)nc1NC[C@H]1CCNC1` [Compound 379], for which the Ki (in experiment [1]; at ROCK I (AA 6-553)) was < 0.5 µM throughout.
As to `O=Cc1ccc(-c2c[nH]c3ncc(-c4ccccc4)cc23)cc1` [Compound 229], the results for the inhibition constant Ki (in experiment [1]; at ROCK I (AA 6-553)) were < 0.5 µM and 0.5 to 5 µM, respectively.
Regarding `Cc1ccc(CNc2cccc(-c3c[nH]c4ncc(Cl)cc34)n2)cc1` [Compound 254], the Ki in experiment [1] was < 0.5 µM; at ROCK I (AA 6-553), 0.5 to 5 µM.
As for `c1ccc(-c2cnc3[nH]cc(-c4cccc(N5CCCC5)n4)c3c2)cc1` [Compound 293], the inhibitory constant (Ki) (in experiment [1]; at ROCK I (AA 6-553)) was 0.5 to 5 µM each time.
For `CNc1cccc(-c2cn(C)c3ncc(Cl)cc23)n1` [Compound 292], the values for the inhibitory constant (Ki) (in experiment [1]; on ROCK I (AA 6-553)) were > 5 µM and 0.5 to 5 µM, respectively.
Regarding `Fc1cnc(-c2c[nH]c3ncc(Cl)cc23)nc1N[C@@H]1CCNC1` [Compound 381], the Ki (in experiment [1]; at ROCK I (AA 6-553)) was < 0.5 µM in each case.
With `CNC(=O)[C@H](CC(C)C)Nc1nc(-c2c[nH]c3ncc(Cl)cc23)ncc1F` [Compound 393], the results for the inhibition constant (Ki) (in experiment [1]; on ROCK I (AA 6-553)) were < 0.5 µM and 0.5 to 5 µM, respectively.
Take `Fc1cnc(-c2c[nH]c3ncc(Cl)cc23)nc1NC1CCNC1` (stereo not drawn) [Compound 344]: the inhibition constant (Ki) (in experiment [1]; on ROCK I (AA 6-553)) was < 0.5 µM each time.
Take `NC(=O)c1ccc(-c2c[nH]c3ncc(-c4ccc(F)cc4)cc23)cc1` [Compound 227]: the Ki (in experiment [1]; on ROCK I (AA 6-553)) was < 0.5 µM each time.
`CC(C)Oc1cnc(-c2c[nH]c3ncc(Cl)cc23)nc1N[C@@H](C)C(=O)NCC(F)(F)F` [Compound 410]: the Ki in experiment [1] was < 0.5 µM; on ROCK I (AA 6-553) it was 0.5 to 5 µM.
On to `Cc1ccc(CNc2cccc(-c3c[nH]c4ncc(-c5ccccc5)cc34)n2)cc1` [Compound 262], for which the inhibition constant Ki (in experiment [1]; on ROCK I (AA 6-553)) was 0.5 to 5 µM throughout.
Consider `C[C@H](Nc1nc(-c2c[nH]c3ncc(Cl)cc23)ncc1F)c1ccccc1` [Compound 286], for which the inhibition constant Ki in experiment [1] was < 0.5 µM; on ROCK I (AA 6-553) it was 0.5 to 5 µM.
For `O=C(Nc1cccc(-c2c[nH]c3ncc(Cl)cc23)n1)c1cccnc1` [Compound 296], the Ki in experiment [1] is < 0.5 µM; on ROCK I (AA 6-553) it was 0.5 to 5 µM.
Turning to `CNc1cccc(-c2c[nH]c3ncc(Cl)cc23)n1` [Compound 298], the Ki (in experiment [1]; on ROCK I (AA 6-553)) was 0.5 to 5 µM throughout.
As to `CC(C)(C)OC(=O)Nc1cccc(-c2c[nH]c3ncc(Cl)cc23)n1` [Compound 250], the inhibition constant Ki in experiment [1] is < 0.5 µM; at ROCK I (AA 6-553), 0.5 to 5 µM.
As for `C[C@H](Nc1nc(-c2c[nH]c3ncc(Cl)cc23)ncc1F)C(=O)O` [Compound 360], the Ki (in experiment [1]; at ROCK I (AA 6-553)) was 0.5 to 5 µM in each case.
In the case of `Fc1ccc(-c2cnc3[nH]cc(-c4ccc(F)cc4)c3c2)cc1` [Compound 223], the Ki (in experiment [1]; at ROCK I (AA 6-553)) was 0.5 to 5 µM each time.
Consider `Clc1cnc2[nH]cc(-c3cccc(Nc4ccccc4)n3)c2c1` [Compound 243], for which the results for the Ki (in experiment [1]; at ROCK I (AA 6-553)) were < 0.5 µM and 0.5 to 5 µM, respectively.
Take `COc1ccc(-c2c[nH]c3ncc(-c4ccc(F)cc4)cc23)cc1OC` [Compound 222]: the inhibition constant (Ki) (in experiment [1]; on ROCK I (AA 6-553)) was < 0.5 µM each time.
Take `CCCNc1cccc(-c2c[nH]c3ncc(-c4ccccc4)cc23)n1` [Compound 259]: the inhibition constant (Ki) (in experiment [1]; at ROCK I (AA 6-553)) was < 0.5 µM in each case.
For the compound `COC(=O)c1cnc2[nH]cc(-c3ncc(F)c(N[C@@H](C)c4ccc(F)cc4)n3)c2c1` [Compound 307], the Ki (in experiment [1]; on ROCK I (AA 6-553)) was < 0.5 µM in each case.
